Marks after values point to notes of the source that are not given here. Positions of bridges follow the written chain, without caps; N, C: chain ends. Non-standard residues stand in square brackets, D forms with d. Residues, ends and D or L forms follow the SMILES beside them. Chains are numbered I, II in the order given. *: point of attachment. X1 = CC[C@H](C)CCCCC(=O)*; Dab = NCC[C@H](N)C(=O)O
Tests used:
[1] = test system: P. aeruginosa ATCC 9027; test: Mice model of infectious keratitis; assay type: in vivo, C57BL6 mice; details: for Corneal bacterial burden: 0.15% gatifloxacin or 0.05% B2088 alone
Procedure: The marked synergism between B2088 and gatifloxacin in the mammalian cell culture model prompted us to investigate the efficacy of the combinations in vivo. A mouse model of keratitis was used to examine the efficacy of peptide-antibiotics combinations. After infection of the cornea with P. aeruginosa ATCC 9027 strains, mice were treated with gatifloxacin (0.15% w/v) or B2088 (0.05%) alone as well as gatifloxacin (0.15%) in combination with B2088 (0.05% w/v). […] (Fig. 7c,d and Supplementary Fig. S3).
Wild type C57BL6 (6–8 weeks old and weighs about 20-30 gram) female mice purchased from National University of Singapore were used for this study. P. aeruginosa ATCC 9027 was grown overnight in TSA (Tryptic Soy Agar) at 37 °C. Concentration of 3 × 10^8 bacterial stock was prepared for mice corneal infection with United States Phosphate Buffer (USP) by resuspending few colonies from the overnight cultured TSA plates.
Healthy mice with good corneal clarity were chosen for this study through careful monitoring with slit-lamp biomicroscopy. A total of 60 mice were used for this study (n = 12 for 5 groups) at different time points (day1, day2, day3 post treatment). The animals were anesthetized subcutaneously by 0.2 ml of ketamine (100 mg/ml) and 0.1 ml of xylazil (20 mg/ml) in 0.7 ml of normal saline (0.08 ml/mice). […] Topical application of bacteria suspension (10 μl) was applied to the scratched cornea. All the animals had been treated with the antibiotics or peptide/antibiotics combinations (3 times/day) started from day1 post infection.
At post treatment day1, day 2 and day 3, four animals from each group were euthanized. The infected corneas was dissected and processed for colony counting. Single individual cornea from different groups was homogenized in sterile 0.9% NaCl containing 0.25% BSA and diluted serially (10^1 to 10^2 fold dilution), plated in duplicates on TSA plates and incubated for 48 h at 37 °C. The number of viable bacteria was enumerated as before.

[2] = test system: P. aeruginosa ATCC 9027; test: Outer membrane permeability assay (NPN); assay type: cell-based; details: no unit in table; Fig. S5 axis [Peptide], μM; 10 μM NPN, 5 mM HEPES pH 7.4, ex 355/em 405 nm; average of two titrations; read-out: PC50 (peptide concentration for half-maximal NPN intensity, OM permeability)
Procedure, shortened: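 Overnight MHB-grown cells were washed and resuspended in 5 mM HEPES pH 7.4 to OD600 0.200, then loaded with 10 μM NPN (final), with peptide titrated in after dye stabilization. Fluorescence ex 355/em 405 nm; PC50 is the peptide concentration giving half-maximal intensity, from a sigmoidal fit averaged over two titrations.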

[3] = test system: P. aeruginosa DR4877/07; assay type: cell-based; details: for Fractional inhibitory concentration of peptide/PMB, combination with Chloarm / Fractional inhibitory concentration of peptide/PMB, combination with Erythro / Fractional inhibitory concentration of peptide/PMB, combination with Levo / Fractional inhibitory concentration of peptide/PMB, combination with Tobra: first number in parenthesis; for Fold decrease in the MIC of antibiotics at sub-lethal/sub-inhibitory concentrations of B2088: multidrug resistant P. aeruginosa 4877; for Fractional inhibitory concentration of antibiotic, Chloarm combination / Fractional inhibitory concentration of antibiotic, Erythro combination / Fractional inhibitory concentration of antibiotic, Levo combination / Fractional inhibitory concentration of antibiotic, Tobra combination: second number in parenthesis; for FICI of B2088-antibiotic combination: lowest FICI reported, two independent duplicates
Procedure, shortened: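 Checkerboard combinations of peptide and antibiotic, each 2-fold diluted up to 1× MIC in MHB, were tested against ~10^6 CFU/ml final inoculum. Plates were incubated 24 h at 37 °C, with growth read at OD600. FICI was the sum of the combination-to-alone MIC ratios for each agent, and the lowest FICI from duplicate experiments was reported.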

[4] = test system: K. pneumonia 4299; test: Checkerboard assay; assay type: cell-based, K. pneumoniae; details: for Fractional inhibitory concentration of B2088 used for FICI calculation: first number in parenthesis, in combination with the labelled antibiotic; for Fractional inhibitory concentration of antibiotic used for FICI calculation: second number in parenthesis, in combination with B2088
Procedure: (§1) The synergism between peptides with conventional antibiotics was evaluated using checkerboard assays. For a comparison polymyxin B (PMB) was also tested against each antibiotic. From their stock solutions, two-fold dilutions of each antibiotic and peptide to 1× MIC were prepared in MHB. 50 μl of each peptide concentration was added into the wells of a 96-well polystyrene plates (SPL Life Sciences Co. Ltd, Korea) in a horizontal orientation and the same volume of each antibiotic concentration were then added in a vertical orientation. Bacterial suspensions were prepared in MHB to yield final cell density of ~10^6 CFU/ml and 100 μl of bacterial suspension was mixed with each peptide-antibiotic combinations. This procedure was repeated for wells containing 200 μl of peptide alone and 200 μl of antibiotic alone in various concentrations. The positive and negative controls contained 200 μl of inoculum and MHB alone respectively. The plates were incubated at 37 °C for 24 hours and the optical density at 600 nm (OD600) was monitored as before. Fractional inhibitory concentration index (FICI) for all antibiotic- peptide combinations was calculated through the summation of (MIC of peptide in the combination/ MIC of peptide alone) and (MIC of antibiotics in combination/MIC of antibiotic alone). The experiments were performed in two independent duplicates and the combinations that gave the lowest FICI values was reported.

[5] = test system: K. pneumonia 31158; test: Checkerboard assay; assay type: cell-based, K. pneumoniae; details: for Fractional inhibitory concentration of B2088 used for FICI calculation: first number in parenthesis, in combination with the labelled antibiotic; for Fractional inhibitory concentration of antibiotic used for FICI calculation: second number in parenthesis, in combination with B2088
Procedure: as §1

[6] = test system: K. pneumonia 07955; test: Checkerboard assay; assay type: cell-based, K. pneumoniae; details: for Fractional inhibitory concentration of B2088 used for FICI calculation: first number in parenthesis, in combination with the labelled antibiotic; for Fractional inhibitory concentration of antibiotic used for FICI calculation: second number in parenthesis, in combination with B2088
Procedure: as §1

[7] = MIC of B2088 6.25 μg/ml, MHB, ~10^6 CFU/ml, 37 °C, 24 h

SMILES	Corneal bacterial burden [1]	EC50 [2] [µM]	Fractional inhibitory concentration of peptide/PMB, combination with Chloarm [3]	Fractional inhibitory concentration of peptide/PMB, combination with Erythro [3]	Fractional inhibitory concentration of peptide/PMB, combination with Levo [3]	Fractional inhibitory concentration of peptide/PMB, combination with Tobra [3]	Fold decrease in the MIC of antibiotics at sub-lethal/sub-inhibitory concentrations of B2088 [3]	Fractional inhibitory concentration of antibiotic, Chloarm combination [3]	Fractional inhibitory concentration of antibiotic, Erythro combination [3]	Fractional inhibitory concentration of antibiotic, Levo combination [3]	Fractional inhibitory concentration of antibiotic, Tobra combination [3]	Fractional Inhibitory Concentration Index of B2088 with the antibiotic [4]	Fractional inhibitory concentration of B2088 used for FICI calculation [4]	Fractional inhibitory concentration of antibiotic used for FICI calculation [4]	Fractional Inhibitory Concentration Index of B2088 with the antibiotic [5]	Fractional inhibitory concentration of B2088 used for FICI calculation [5]	Fractional inhibitory concentration of antibiotic used for FICI calculation [5]	Fractional Inhibitory Concentration Index of B2088 with the antibiotic [6]	Fractional inhibitory concentration of B2088 used for FICI calculation [6]	Fractional inhibitory concentration of antibiotic used for FICI calculation [6]	other results
CC(C)[C@H](NC(=O)[C@H](CCCCN)NC(=O)[C@H](CCCNC(=N)N)NC(=O)CNC(=O)[C@@H](N)CCCNC(=N)N)C(=O)N[C@H](C(=O)N[C@@H](CCCNC(=N)N)C(=O)N[C@@H](CCCNC(=N)N)C(=O)NCCCC[C@H](NC(=O)[C@H](CCCNC(=N)N)NC(=O)[C@H](CCCNC(=N)N)NC(=O)[C@@H](NC(=O)[C@@H](NC(=O)[C@H](CCCCN)NC(=O)[C@H](CCCNC(=N)N)NC(=O)CNC(=O)[C@@H](N)CCCNC(=N)N)C(C)C)C(C)C)C(=O)N[C@@H](CCCCN)C(=O)O)C(C)C [B2088] (I: H-RGRKVVRRKK-OH / II: H-RGRKVVRR; amide I:9-II:C; N-terminus and C-terminus assumed)	increased bacterial burden	13.2 ± 0.4	(0.25,0.25)	(0.5,0.5) ^‡	(0.5,0.5)	(0.25,0.25)	2-8 fold	(0.25,0.25)	(0.5,0.5) ^‡	(0.5,0.5)	(0.25,0.25)										Reduction of antibiotic use in the presence of B2088 ([1]; 0.05% B2088 with gatifloxacin): about 50%
COc1c(N2CCNC(C)C2)c(F)cc2c(=O)c(C(=O)O)cn(C3CC3)c12 (stereo not shown) [Gatifloxacin]	increased bacterial burden											0.56	0.06	0.5	0.56	0.06	0.5	0.63	0.13	0.5	Corneal clarity and bacterial load ([1]; topical 0.3% gatifloxacin, 3 times/day, vs PBS-treated mice): clear cornea and less bacterial load; FICI of polymyxin B-antibiotic combination [3]: 0.63; MIC of antibiotics in the presence of ¼× sub-MIC of B2088 [3, 7]: 15.6 µg/mL; MIC of antibiotics in the presence of ½× sub-MIC of B2088 [3, 7]: 7.8 µg/mL; MIC of antibiotics in the presence of ⅛× sub-MIC of B2088 [3, 7]: 15.6 µg/mL; FICI of B2088-antibiotic combination [3]: 0.63
CC[C@H](C)CCCCC(=O)N[C@@H](CCN)C(=O)N[C@H](C(=O)N[C@@H](CCN)C(=O)N[C@H]1CCNC(=O)[C@H]([C@@H](C)O)NC(=O)[C@H](CCN)NC(=O)[C@H](CCN)NC(=O)[C@H](CC(C)C)NC(=O)[C@@H](Cc2ccccc2)NC(=O)[C@H](CCN)NC1=O)[C@@H](C)O [Polymyxin B, polymyxin B, reference compound] (X1-[Dab]T[Dab][Dab][Dab][dF]L[Dab][Dab]T; lactam 4-C (inferred); N-terminus assumed)		5.82 ± 0.6	0.125	0.25	0.5	(0.5,0.5)		0.5	0.5	0.25	(0.5,0.5)										Fractional Inhibitory Concentration Index with Chloarm ([3]; peptide + chloramphenicol): 0.63; Fractional Inhibitory Concentration Index with Erythro ([3]; peptide + erythromycin): 0.75; Fractional Inhibitory Concentration Index with Levo ([3]; peptide + levofloxacin): 0.75; Fractional Inhibitory Concentration Index with Tobra ([3]; peptide + tobramycin): 1.0
NC[C@H]1O[C@H](O[C@H]2[C@H](O)[C@@H](O[C@H]3O[C@H](CO)[C@@H](O)[C@H](N)[C@H]3O)[C@H](N)C[C@@H]2N)[C@H](N)C[C@@H]1O [Tobramycin]							4 fold					0.25	(0.125,0.125)	(0.125,0.125)	0.25	(0.125,0.125)	(0.125,0.125)	0.75	0.5	0.25	FICI of polymyxin B-antibiotic combination [3]: 1.0; MIC of antibiotics in the presence of ¼× sub-MIC of B2088 [3, 7]: 200 µg/mL; MIC of antibiotics in the presence of ½× sub-MIC of B2088 [3, 7]: 200 µg/mL; FICI of B2088-antibiotic combination [3]: 0.5
